{"source": "patent US20050049294A1", "about": "“Methods of using [3.2.0] heterocyclic compounds and analogs thereof” (priority 2003, published 2005)", "key": {"[1]": {"tested_on": "IκBα in HEK293 cells and NF-κB/Luc 293 reporter clone", "assay": "Western blot of phosphorylated-IκBα and total IκBα", "type": "cell-based, human", "conditions": "50 and 500 nM, 1 hour pre-treatment, TNF-α 10 ng/mL 30 minutes", "procedure": "Endogenous protein levels were assessed in both HEK293 cells and the NF-κB/Luc 293 reporter clone.\nAntibodies against total and phosphorylated forms of IκBα were used to determine the endogenous level of each protein and anti-Tubulin antibody was used to confirm equal loading of protein."}, "[2]": {"tested_on": "60 human tumor cell lines", "assay": "NCI screen of 60 human tumor cell lines", "type": "cell-based", "conditions": "48 h, read-out: mean GI50"}, "[3]": {"molecular_target": "CYP2C9 (Homo sapiens, UniProt P11712)", "sequence (P11712 whole entry)": "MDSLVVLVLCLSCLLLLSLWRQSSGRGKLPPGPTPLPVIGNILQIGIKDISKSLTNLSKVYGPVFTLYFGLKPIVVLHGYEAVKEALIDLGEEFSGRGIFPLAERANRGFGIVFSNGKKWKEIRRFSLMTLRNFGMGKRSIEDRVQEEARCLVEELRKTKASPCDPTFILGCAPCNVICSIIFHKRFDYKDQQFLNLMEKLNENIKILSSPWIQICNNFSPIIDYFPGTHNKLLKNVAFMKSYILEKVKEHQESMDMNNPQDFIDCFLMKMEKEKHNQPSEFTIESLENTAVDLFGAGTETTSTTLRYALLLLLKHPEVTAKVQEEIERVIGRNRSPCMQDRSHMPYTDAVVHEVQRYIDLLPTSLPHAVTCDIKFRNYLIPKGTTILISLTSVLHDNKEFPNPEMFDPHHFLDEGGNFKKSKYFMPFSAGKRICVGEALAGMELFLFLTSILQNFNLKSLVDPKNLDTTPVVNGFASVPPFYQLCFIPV", "assay": "Preliminary P450 inhibition screen, CYP2C9", "source_text": "(§1) These studies consisted of solubility assessment, LogD^7.4 determination and a preliminary screen to detect cytochrome P450 enzyme inhibition."}, "[4]": {"tested_on": "DU 145 cells", "assay": "Cell growth inhibition (resazurin, 48 hours), DU 145", "type": "cell-based, human", "conditions": "for EC50: read-out: EC50 (nM), mean ± SD"}, "[5]": {"assay": "in vitro", "conditions": "mouse"}, "[6]": {"molecular_target": "CYP1A2 (Homo sapiens, UniProt P05177)", "sequence (P05177 whole entry)": "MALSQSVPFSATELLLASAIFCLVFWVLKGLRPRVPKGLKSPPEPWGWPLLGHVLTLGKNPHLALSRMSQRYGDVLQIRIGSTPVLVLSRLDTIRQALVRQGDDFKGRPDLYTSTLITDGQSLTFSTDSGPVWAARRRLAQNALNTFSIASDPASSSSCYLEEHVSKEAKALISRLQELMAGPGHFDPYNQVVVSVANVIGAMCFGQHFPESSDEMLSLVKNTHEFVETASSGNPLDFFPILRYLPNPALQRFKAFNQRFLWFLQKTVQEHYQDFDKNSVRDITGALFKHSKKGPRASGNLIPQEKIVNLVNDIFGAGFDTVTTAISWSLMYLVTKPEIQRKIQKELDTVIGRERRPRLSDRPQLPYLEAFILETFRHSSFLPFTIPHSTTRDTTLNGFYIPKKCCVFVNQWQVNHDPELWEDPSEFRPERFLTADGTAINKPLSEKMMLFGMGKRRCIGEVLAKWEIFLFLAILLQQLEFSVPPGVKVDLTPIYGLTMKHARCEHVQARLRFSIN", "assay": "Preliminary P450 inhibition screen, CYP1A2", "source_text": "as §1"}, "[7]": {"molecular_target": "chymotrypsin-like activity of human erythrocyte 20S proteasomes (Homo sapiens, UniProt P28074)", "assay": "biochemical", "conditions": "EC50, chymotrypsin-like activity of human erythrocyte 20S proteasomes, separate lots of proteasomes", "procedure": "The substrate, suc-LLVY-AMC, was prepared as a 20 mM solution in DMSO and stored at −20° C. Human erythrocyte 20S proteasomes were obtained from BIOMOL (Cat. # SE-221). The proteasome can cleave suc-LLVY-AMC into suc-LLVY and free AMC and the activity can then be determined by measuring the fluorescence of the released AMC (λex=390 nm and λem=460 nm ). The proteasomes were activated by SDS and stored on ice as with the experiments using rabbit muscle proteasomes. […] The series was then diluted 20-fold with assay buffer and pre-incubated with proteasomes at 37° C. The reaction was initiated with substrate, and the release of AMC was followed in a Fluoroskan microplate fluorimeter. Data were collected and plotted as the mean of triplicate points."}, "[8]": {"assay": "Solubility assessment", "conditions": "PBS, pH 7.4, aqueous buffer", "source_text": "as §1"}, "[9]": {"assay": "Maximum Tolerated Dose (MTD) determination", "type": "in vivo, BALB/c mice", "source_text": "In vivo studies were designed to determine the MTD of Salinosporamide A when administered intravenously to female BALB/c mice.\nAnimals were observed daily for clinical signs and were weighed individually twice weekly until the end of the experiment (maximum of 14 days after the last day of dosing)."}, "[10]": {"molecular_target": "T1, chymotrypsin-like proteasome activity in packed whole blood lysate (Mus musculus, UniProt O55234)", "T1 construct": "The supernatant (Packed Whole Blood Lysate, PWBL) was transferred to a fresh tube; from tissue; host or cells: packed whole blood cells of Swiss-Webster mice, hypotonic lysate", "T1 sequence (O55234 60-264)": "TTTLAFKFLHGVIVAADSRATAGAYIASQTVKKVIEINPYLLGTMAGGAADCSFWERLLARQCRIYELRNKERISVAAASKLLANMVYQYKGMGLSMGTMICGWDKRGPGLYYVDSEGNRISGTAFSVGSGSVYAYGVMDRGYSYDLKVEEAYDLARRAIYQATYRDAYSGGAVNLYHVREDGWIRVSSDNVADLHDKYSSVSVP", "assay": "Whole blood proteasome activity (packed whole blood lysate, PWBL) of treated mice", "type": "in vivo", "procedure": "In brief, frozen whole blood samples were thawed on ice for one hour, and resuspended in 700 μL of ice cold 5 mM EDTA, pH 8.0 in order to lyse the cells by hypotonic shock. This represents approximately 2-3 times the volume of the packed whole blood cells. Lysis was allowed to proceed for one hour, and the cellular debris was removed by centrifuigation at 14,000×g for 10 minutes. The supernatant (Packed Whole Blood Lysate, PWBL) was transferred to a fresh tube, and the pellet discarded. Protein concentration of the PWBL was determined by BCA assay (Pierce) using BSA as a standard.\nProteasome activity was determined by measuring the hydrolysis of a fluorogenic substrate specific for the chymotrypsin-like activity of proteasomes (suc-LLVY-AMC, Bachem Cat. 1-1395). […] Hydrolysis of the substrate results in the release of free AMC, which was measured fluorometrically by using λex=390 nm and λem=460 nm. The rate of hydrolysis in this system is linear for at least one hour. The hydrolysis rate of each sample is then normalized to relative fluorescent units per milligram of protein (RFU/mg).\nThe vehicle control consisted of 2% DMSO in 10% solutol. […] Packed whole blood cells were collected by centrifugation, washed with PBS, and re-centrifuged. All samples were stored at −80° C. prior to the evaluation of the proteasome activity. […]"}, "[11]": {"molecular_target": "CYP3A4 (Homo sapiens, UniProt P08684)", "sequence (P08684 whole entry)": "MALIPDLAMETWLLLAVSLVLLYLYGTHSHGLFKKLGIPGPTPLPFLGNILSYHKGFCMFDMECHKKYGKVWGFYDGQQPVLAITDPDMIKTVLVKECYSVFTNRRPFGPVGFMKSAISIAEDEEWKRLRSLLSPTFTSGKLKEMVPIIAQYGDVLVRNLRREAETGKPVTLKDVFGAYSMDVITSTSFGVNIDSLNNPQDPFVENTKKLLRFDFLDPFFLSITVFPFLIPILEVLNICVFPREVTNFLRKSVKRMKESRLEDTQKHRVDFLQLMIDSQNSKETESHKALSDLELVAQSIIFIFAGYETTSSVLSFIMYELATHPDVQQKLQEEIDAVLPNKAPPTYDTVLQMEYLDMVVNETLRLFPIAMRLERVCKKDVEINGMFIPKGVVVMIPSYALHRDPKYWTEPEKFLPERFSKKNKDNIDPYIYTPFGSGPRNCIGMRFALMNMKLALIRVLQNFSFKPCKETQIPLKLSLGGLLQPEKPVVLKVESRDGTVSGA", "assay": "Preliminary P450 inhibition screen, CYP3A4", "source_text": "as §1"}, "[12]": {"tested_on": "SK-MEL-28 melanoma cells", "assay": "NCI screen, SK-MEL-28", "type": "cell-based", "conditions": "Homo sapiens, SK-MEL-28, read-out: LC50", "procedure": "A detailed description of the screening procedure can be found at hypertext transfer protocol (http://) “dtp.nci.nih.gov/branches/btb/ivclsp.html.”\nIn brief, each of the 60 human tumor cell lines were grown in RPMI 1640 medium, supplemented with 5% fetal bovine serum and 2 mM L-glutamine. Cells were plated at their appropriate density in 96-well microtiter plates and incubated at 37° C., 5% CO2, 95% air and 100% relative humidity. […] Cells were incubated for an additional 48 hours and a sulforhodamine B protein assay was used to estimate cell viability or growth."}, "[13]": {"molecular_target": "CYP2D6 (Homo sapiens, UniProt P10635)", "sequence (P10635 whole entry)": "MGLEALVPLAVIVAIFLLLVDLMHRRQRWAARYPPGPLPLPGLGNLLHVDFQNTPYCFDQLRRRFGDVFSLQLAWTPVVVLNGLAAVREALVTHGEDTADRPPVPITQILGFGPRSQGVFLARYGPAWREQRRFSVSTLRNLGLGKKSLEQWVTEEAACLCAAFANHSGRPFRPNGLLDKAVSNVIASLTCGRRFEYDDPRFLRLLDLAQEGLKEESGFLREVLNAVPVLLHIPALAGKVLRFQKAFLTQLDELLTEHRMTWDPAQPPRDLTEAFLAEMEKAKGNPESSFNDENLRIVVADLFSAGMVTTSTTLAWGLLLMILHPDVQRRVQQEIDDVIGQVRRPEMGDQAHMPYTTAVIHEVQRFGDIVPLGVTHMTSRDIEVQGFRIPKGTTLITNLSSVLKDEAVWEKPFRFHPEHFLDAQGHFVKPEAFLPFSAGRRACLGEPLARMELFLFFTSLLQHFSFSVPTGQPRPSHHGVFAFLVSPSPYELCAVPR", "assay": "Preliminary P450 inhibition screen, CYP2D6", "source_text": "as §1"}, "[14]": {"tested_on": "LeTx-induced cytotoxicity of RAW264.7 cells"}}, "note": "Where “and” joins values, the source holds several entries; their conditions need not be identical. Identical values can stand only once. Like-named read-outs stand apart in the source and are kept apart here."}
{"compound": "C[C@@]12OC(=O)[C@]1([C@@H](O)[C@@H]1C=CCCC1)NC(=O)[C@@H]2CCCl", "note": "[Formula II-16, Salinosporamide A]", "values": [{"measurement": "degradation of total IκBα and phospho-IκBα level", "setting": "[1]", "value": "reduced the degradation of total IκBα but also retained the phospho-IκBα level"}, {"measurement": "GI50", "setting": "[2]", "value": "< 10", "unit": "nM"}, {"measurement": "inhibition at 10 µM", "setting": "[3]", "value": 6, "unit": "%"}, {"measurement": "EC50", "setting": "[4]; Homo sapiens, Table 6, DU 145 (n = 3)", "value": "37 ± 10", "unit": "nM"}, {"measurement": "EC50", "setting": "[4]; Table 2, DU 145, human prostate carcinoma, 48 hours", "value": "37 ± 10", "unit": "nM"}, {"measurement": "% cytotoxicity, mean ± SD", "setting": "[4]; Table 6, DU 145 (n = 3)", "value": "75 ± 4", "unit": "%"}, {"measurement": "viability at […]", "setting": "[5]", "value": 96, "unit": "%"}, {"measurement": "inhibition at 10 µM", "setting": "[6]", "value": 3, "unit": "%"}, {"measurement": "EC50", "setting": "[7]", "value": "~0.25 nM and 0.045 to 0.247 nM and 0.045 to 0.25 nM"}, {"measurement": "solubility", "setting": "[8]", "value": "9.6 µM and 3 µg/mL"}, {"measurement": "behavioral changes during the course of the experiment", "setting": "[9]; 0.01 to 0.5 mg/kg i.v.", "value": "No behavioral changes were noted"}, {"measurement": "dose well tolerated when administered daily for five consecutive days", "setting": "[9]; i.v., qdx5, female BALB/c mice", "value": "up to 0.1 mg/kg"}, {"measurement": "single intravenous dose tolerated", "setting": "[9]; i.v., single dose (qdx1), female BALB/c mice", "value": "up to 0.25 mg/kg"}, {"measurement": "proteasomal activity in PWBL", "setting": "[10]; male Swiss-Webster mice, i.v. or oral, 90 minutes after administration (FIG. 40)", "value": "profound decrease in proteasomal activity in PWBL"}, {"measurement": "inhibition at […]", "setting": "[10]; mouse, iv, 0.25 mg/kg i.v., mice, read-out: ex vivo proteasome inhibition in packed whole blood", "value": "94 ± 3", "unit": "%"}, {"measurement": "inhibition at 10 µM", "setting": "[11]", "value": 6, "unit": "%"}, {"measurement": "CC50", "setting": "[12]", "value": "< 10", "unit": "nM"}, {"measurement": "inhibition at 10 µM", "setting": "[13]", "value": 19, "unit": "%"}, {"measurement": "cell-viability, compound + LeTx", "setting": "[14]", "value": 82, "unit": "%"}, {"measurement": "increase in the viability of LeTx-treated cells compared to LeTx treatment alone", "setting": "[14]", "value": 10, "unit": "fold"}, {"measurement": "EC50", "setting": "[14]; read-out: average EC50, viability of LeTx-treated cells", "value": 3.6, "unit": "nM"}]}
